Data taken from patent publication US11325889B2, “Substituted 3-((3-aminophenyl)amino)piperidine-2,6-dione compounds, compositions thereof, and methods of treatment therewith” (Celgene Corporation, priority 2018, dated 2022).
Read-outs that look alike come from different tables or passages of the source.

Target: T1, AR protein in VCaP cells (Homo sapiens, UniProt P10275)
T1 construct: endogenous in cells; host or cells: VCaP cells
T1 sequence (P10275 1-920): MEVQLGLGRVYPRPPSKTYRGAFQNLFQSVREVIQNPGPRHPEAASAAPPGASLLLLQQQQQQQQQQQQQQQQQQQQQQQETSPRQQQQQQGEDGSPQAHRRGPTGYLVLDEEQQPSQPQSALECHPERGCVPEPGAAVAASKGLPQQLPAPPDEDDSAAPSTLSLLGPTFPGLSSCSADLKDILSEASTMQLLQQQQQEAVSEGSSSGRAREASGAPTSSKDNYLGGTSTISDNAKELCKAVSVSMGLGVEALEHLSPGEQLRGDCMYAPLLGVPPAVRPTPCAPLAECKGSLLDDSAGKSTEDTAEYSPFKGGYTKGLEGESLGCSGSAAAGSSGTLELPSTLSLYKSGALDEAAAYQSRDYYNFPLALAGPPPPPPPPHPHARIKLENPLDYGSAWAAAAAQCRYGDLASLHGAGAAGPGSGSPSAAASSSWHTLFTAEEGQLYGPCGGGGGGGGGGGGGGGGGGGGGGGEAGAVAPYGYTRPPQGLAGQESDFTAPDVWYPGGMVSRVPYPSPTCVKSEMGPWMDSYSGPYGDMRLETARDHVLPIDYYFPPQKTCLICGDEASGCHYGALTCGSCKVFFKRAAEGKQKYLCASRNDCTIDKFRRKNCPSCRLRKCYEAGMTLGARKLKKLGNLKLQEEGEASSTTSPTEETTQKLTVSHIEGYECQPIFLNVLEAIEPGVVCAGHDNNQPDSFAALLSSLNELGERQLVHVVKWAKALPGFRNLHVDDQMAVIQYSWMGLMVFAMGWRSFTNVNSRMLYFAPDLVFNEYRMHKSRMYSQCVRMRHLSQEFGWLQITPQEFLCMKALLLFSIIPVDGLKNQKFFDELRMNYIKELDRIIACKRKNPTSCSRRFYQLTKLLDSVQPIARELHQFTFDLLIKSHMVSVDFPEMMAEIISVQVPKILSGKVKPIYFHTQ
Experiment: VCAP AR Degradation Assay (AR ELISA, 24 h)
Assay type: cell-based
Settings: for Y (lowest measured AR level normalized to DMSO control): AR degradation efficiency; for DC50: concentration of compound when AR level = 50% of DMSO control
Method in brief: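 VCaP cells in DMEM with 8% FBS exposed for 24 h at 37° C to a 10-point, 1:3 series (final top concentration […]; 0.1% DMSO control). Lysate AR measured by sandwich ELISA and normalized to DMSO as percent of control. DC50, EC50 and lowest AR level (Y) from four-parameter logistic fit.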

Compound: CCc1cc(N2C(=S)N(c3ccc(C#N)c(C(F)(F)F)c3)C(=O)C2(C)C)ccc1OCCC1CCN(CC(=O)Nc2cc(NC3CCC(=O)NC3=O)ccc2F)CC1 (centres unmarked) [Cmpd 18, 2-(4-(2-(4-(3-(4-cyano-3-(trifluoromethyl)phenyl)-5,5-dimethyl-4-oxo-2-thioxoimidazolidin-1-yl)-2-ethylphenoxy)ethyl)piperidin-1-yl)-N-(5-(2,6-dioxopiperidin-3-ylamino)-2-fluorophenyl)acetamide]
- Y (lowest measured AR level normalized to DMSO control): * (0<Y<=25%)
- DC50 (read-out: DC50): 100 to 500 nM

Compound: CCc1cc(N2C(=S)N(c3ccc(C#N)c(C(F)(F)F)c3)C(=O)C2(C)C)ccc1OCC[C@H]1CCN(CC(=O)Nc2cccc(NC3CCC(=O)NC3=O)c2)[C@H](C)C1 (stereo partly drawn) [Cmpd 70, 2-((2R,4S)-4-(2-(4-(3-(4-cyano-3-(trifluoromethyl)phenyl)-5,5-dimethyl-4-oxo-2-thioxoimidazolidin-1-yl)-2-ethylphenoxy)ethyl)-2-methylpiperidin-1-yl)-N-(3-(2,6-dioxopiperidin-3-ylamino)phenyl)acetamide]
- Y (lowest measured AR level normalized to DMSO control): * (0<Y<=25%)
- DC50 (read-out: DC50): < 100 nM

Compound: CC1(C)C(=O)N(c2cnc(C#N)c(C(F)(F)F)c2)C(=S)N1c1ccc(OCC2CCN(CC(=O)Nc3cccc(NC4CCC(=O)NC4=O)c3)CC2)c(Cl)c1 (centres unmarked) [Cmpd 7, 2-(4-((2-chloro-4-(3-(6-cyano-5-(trifluoromethyl)pyridin-3-yl)-5,5-dimethyl-4-oxo-2-thioxoimidazolidin-1-yl)phenoxy)methyl)piperidin-1-yl)-N-(3-(2,6-dioxopiperidin-3-ylamino)phenyl)acetamide]
- Y (lowest measured AR level normalized to DMSO control): ** (25%<Y<=35%)
- DC50 (read-out: DC50): 500 to 1000 nM

Compound: CC1(C)C(=O)N(c2ccc(C#N)c(C(F)(F)F)c2)C(=S)N1c1ccc(OCCC2CCN(CC(=O)Nc3cc(Cl)cc(NC4CCC(=O)NC4=O)c3)CC2)c(F)c1 (centres unmarked) [Cmpd 10, N-(3-chloro-5-(2,6-dioxopiperidin-3-ylamino)phenyl)-2-(4-(2-(4-(3-(4-cyano-3-(trifluoromethyl)phenyl)-5,5-dimethyl-4-oxo-2-thioxoimidazolidin-1-yl)-2-fluorophenoxy)ethyl)piperidin-1-yl)acetamide]
- Y (lowest measured AR level normalized to DMSO control): ** (25%<Y<=35%)
- DC50 (read-out: DC50): 100 to 500 nM

Compound: CCc1cc(N2C(=S)N(c3cnc(C#N)c(C(F)(F)F)c3)C(=O)C2(C)C)ccc1OCCC1CCN(C2(C(=O)Nc3cc(Cl)cc(NC4CCC(=O)NC4=O)c3)CC2)CC1 (centres unmarked) [Cmpd 34, N-(3-chloro-5-(2,6-dioxopiperidin-3-ylamino)phenyl)-1-(4-(2-(4-(3-(6-cyano-5-(trifluoromethyl)pyridin-3-yl)-5,5-dimethyl-4-oxo-2-thioxoimidazolidin-1-yl)-2-ethylphenoxy)ethyl)piperidin-1-yl)cyclopropanecarboxamide]
- Y (lowest measured AR level normalized to DMSO control): *** (35%<Y<50%)
- DC50 (read-out: DC50): 500 to 1000 nM

Compound: CC1(C)C(=O)N(c2cnc(C#N)c(C(F)(F)F)c2)C(=S)N1c1ccc(OCCC2CCN(CC(=O)Nc3cccc(NC4CCC(=O)NC4=O)c3)CC2)c(Cl)c1 (centres unmarked) [Cmpd 5, 2-(4-(2-(2-chloro-4-(3-(6-cyano-5-(trifluoromethyl)pyridin-3-yl)-5,5-dimethyl-4-oxo-2-thioxoimidazolidin-1-yl)phenoxy)ethyl)piperidin-1-yl)-N-(3-(2,6-dioxopiperidin-3-ylamino)phenyl)acetamide]
- Y (lowest measured AR level normalized to DMSO control): * (0<Y<=25%)
- DC50 (read-out: DC50): < 100 nM

Compound: CCc1cc(N2C(=S)N(c3cnc(C#N)c(C(F)(F)F)c3)C(=O)C2(C)C)ccc1OCCC1CCN([C@H](C)C(=O)Nc2cc(C#N)cc(NC3CCC(=O)NC3=O)c2)CC1 (stereo partly drawn) [Cmpd 38, (2R)-N-(3-cyano-5-(2,6-dioxopiperidin-3-ylamino)phenyl)-2-(4-(2-(4-(3-(6-cyano-5-(trifluoromethyl)pyridin-3-yl)-5,5-dimethyl-4-oxo-2-thioxoimidazolidin-1-yl)-2-ethylphenoxy)ethyl)piperidin-1-yl)propanamide]
- Y (lowest measured AR level normalized to DMSO control): ** (25%<Y<=35%)
- DC50 (read-out: DC50): < 100 nM

Compound: CCc1cc(N2C(=S)N(c3cnc(C#N)c(C(F)(F)F)c3)C(=O)C2(C)C)ccc1OCC[C@H]1C[C@H]2CC[C@@H](C1)N2CC(=O)Nc1cccc(NC2CCC(=O)NC2=O)c1 (stereo partly drawn) [Cmpd 65, 2-((1R,3r,5S)-3-(2-(4-(3-(6-cyano-5-(trifluoromethyl)pyridin-3-yl)-5,5-dimethyl-4-oxo-2-thioxoimidazolidin-1-yl)-2-ethylphenoxy)ethyl)-8-azabicyclo[3.2.1]octan-8-yl)-N-(3-(2,6-dioxopiperidin-3-ylamino)phenyl)acetamide]
- Y (lowest measured AR level normalized to DMSO control): * (0<Y<=25%)
- DC50: < 100 nM

Compound: CC1(C)C(=O)N(c2ccc(C#N)c(C(F)(F)F)c2)C(=S)N1c1ccc(OC2CCN(CC(=O)Nc3cccc(NC4CCC(=O)NC4=O)c3)CC2)c(F)c1 (centres unmarked) [Cmpd 1, 2-(4-(4-(3-(4-cyano-3-(trifluoromethyl)phenyl)-5,5-dimethyl-4-oxo-2-thioxoimidazolidin-1-yl)-2-fluorophenoxy)piperidin-1-yl)-N-(3-(2,6-dioxopiperidin-3-ylamino)phenyl)acetamide]
- Y (lowest measured AR level normalized to DMSO control): ** (25%<Y<=35%)
- DC50 (read-out: DC50): < 100 nM

Compound: CCc1cc(N2C(=S)N(c3cnc(C#N)c(C(F)(F)F)c3)C(=O)C2(C)C)ccc1OC1CCN(CC(=O)Nc2cccc(NC3CCC(=O)NC3=O)c2)CC1 (centres unmarked) [Cmpd 53, 2-(4-(4-(3-(6-cyano-5-(trifluoromethyl)pyridin-3-yl)-5,5-dimethyl-4-oxo-2-thioxoimidazolidin-1-yl)-2-ethylphenoxy)piperidin-1-yl)-N-(3-(2,6-dioxopiperidin-3-ylamino)phenyl)acetamide]
- Y (lowest measured AR level normalized to DMSO control): ** (25%<Y<=35%)
- DC50 (read-out: DC50): < 100 nM

Compound: CCc1cc(N2C(=S)N(c3cnc(C#N)c(C(F)(F)F)c3)C(=O)C2(C)C)ccc1OCC[C@@H]1C[C@H]2CC[C@@H](C1)N2CC(=O)Nc1cc(Cl)cc(NC2CCC(=O)NC2=O)c1 (stereo partly drawn) [Cmpd 62, N-(3-chloro-5-(2,6-dioxopiperidin-3-ylamino)phenyl)-2-((1R,3s,5S)-3-(2-(4-(3-(6-cyano-5-(trifluoromethyl)pyridin-3-yl)-5,5-dimethyl-4-oxo-2-thioxoimidazolidin-1-yl)-2-ethylphenoxy)ethyl)-8-azabicyclo[3.2.1]octan-8-yl)acetamide]
- Y (lowest measured AR level normalized to DMSO control): * (0<Y<=25%)
- DC50: < 100 nM

Compound: CCc1cc(N2C(=S)N(c3cnc(C#N)c(C(F)(F)F)c3)C(=O)C2(C)C)ccc1OC1CCN(CC(=O)Nc2cc(NC3CCC(=O)NC3=O)ccc2F)CC1 (centres unmarked) [Cmpd 52, 2-(4-(4-(3-(6-cyano-5-(trifluoromethyl)pyridin-3-yl)-5,5-dimethyl-4-oxo-2-thioxoimidazolidin-1-yl)-2-ethylphenoxy)piperidin-1-yl)-N-(5-(2,6-dioxopiperidin-3-ylamino)-2-fluorophenyl)acetamide]
- Y (lowest measured AR level normalized to DMSO control): *** (35%<Y<50%)
- DC50 (read-out: DC50): 100 to 500 nM

Compound: CCc1cc(N2C(=S)N(c3cnc(C#N)c(C(F)(F)F)c3)C(=O)C23CCC3)ccc1OCCC1CCN([C@@H](C)C(=O)Nc2cccc(NC3CCC(=O)NC3=O)c2)CC1 (stereo partly drawn) [Cmpd 83, (2S)-2-(4-(2-(4-(7-(6-cyano-5-(trifluoromethyl)pyridin-3-yl)-8-oxo-6-thioxo-5,7-diazaspiro[3.4]octan-5-yl)-2-ethylphenoxy)ethyl)piperidin-1-yl)-N-(3-(2,6-dioxopiperidin-3-ylamino)phenyl)propanamide]
- Y (lowest measured AR level normalized to DMSO control): * (0<Y<=25%)
- DC50 (read-out: DC50): < 100 nM
